{"source": "paper PMC7854658", "about": "“Structural basis for ligand recognition of the neuropeptide Y Y2 receptor” (Nature Communications, 2021)", "key": {"Y2R": {"tested_on": "Y2R", "design": "method as in earlier work", "conditions": "ref Swanson, D.M. et al., Bioorg. Med. Chem. Lett. 21:5552-5556, 2011; read-out: Y2R affinity IC50; cited from earlier work"}, "[1]": {"target": "T1, Y2R crystallization construct without flavodoxin in ICL3 (construct_no flavodoxin) (Homo sapiens, UniProt P49146, H149Y/S280C)", "T1 construct": "expressed in transfected cells; host or cells: HEK293", "T1 sequence (P49146 1-353 H149Y/S280C)": "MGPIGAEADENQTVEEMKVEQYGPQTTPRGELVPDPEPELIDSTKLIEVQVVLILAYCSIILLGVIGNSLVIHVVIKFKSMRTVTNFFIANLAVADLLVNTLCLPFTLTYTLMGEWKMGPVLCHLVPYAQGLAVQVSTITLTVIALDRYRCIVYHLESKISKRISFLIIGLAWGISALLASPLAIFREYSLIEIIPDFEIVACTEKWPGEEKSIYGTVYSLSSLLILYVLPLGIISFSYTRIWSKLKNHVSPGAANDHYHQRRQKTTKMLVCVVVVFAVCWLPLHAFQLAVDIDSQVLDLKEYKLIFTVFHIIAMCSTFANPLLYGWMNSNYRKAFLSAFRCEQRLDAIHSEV", "experiment": "Dose-dependent inhibition of NPY (0.3 nM)-induced IP accumulation", "assay_type": "cell-based", "conditions": "read-out: pIC50 ± SEM, inhibition of NPY-induced IP accumulation (converted)", "experimental": "To determine the contribution of residues to antagonist binding, IP-One accumulation assays (Cisbio, Codolet, France) were performed. HEK293 cells were seeded into six-well plates and transiently cotransfected with 3200 ng of receptor plasmid DNA and 800 ng of the chimeric G protein ([…]) to redirect the Gαi signaling pathway to the Gαq phospholipase C pathway. Transient transfection was carried out using Metafectene as transfection reagent according to the manufacturer's protocol (Biontex, Munich, Germany) over night. The cells were then reseeded into white 384-well microplates (Greiner Bio-One, Kremsmünster, Austria) at a density of 15,000 cells per well and grown for additional 24 h. […] The cells were stimulated at 37 °C and 5% CO2 in humidified atmosphere for 90 min. The exact value of the effective concentration (ECx) at the day of the assay was determined by control curves in the absence of antagonist. To determine the amount of cellular IPs, the FRET acceptor (IP1-d2) and the FRET donor (anti-IP1-Cryptate) were reconstituted and diluted in lysis and detection buffer (1:20) as described in the manufacturer's protocol. Three microliters of both solutions were added, and the cells were incubated on a tumbler for 60 min."}, "wild-type Y2R [2]": {"target": "T2, wild-type Y2R (Homo sapiens, UniProt P49146)", "T2 construct": "expressed in transfected cells; host or cells: HEK293", "T2 sequence (P49146 1-381)": "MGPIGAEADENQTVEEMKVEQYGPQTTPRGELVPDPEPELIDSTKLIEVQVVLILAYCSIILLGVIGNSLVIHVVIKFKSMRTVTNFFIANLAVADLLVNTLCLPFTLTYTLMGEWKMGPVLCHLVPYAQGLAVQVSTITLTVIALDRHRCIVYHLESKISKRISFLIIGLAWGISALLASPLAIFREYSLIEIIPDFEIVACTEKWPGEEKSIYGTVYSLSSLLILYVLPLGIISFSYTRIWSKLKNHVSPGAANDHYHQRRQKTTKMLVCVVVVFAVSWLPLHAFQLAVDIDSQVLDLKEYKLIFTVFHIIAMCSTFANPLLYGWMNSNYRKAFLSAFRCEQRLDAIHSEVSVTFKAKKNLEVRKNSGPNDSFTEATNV", "experiment": "NanoBRET-based binding assay (K18(TAMRA)-NPY)", "conditions": "read-out: pIC50 ± SEM, NanoBRET binding (converted)", "experimental": "(§1) For this purpose, a Nanoluciferase[44] (Promega, Madison, WO, USA) followed by a flexible […] terminus of the receptor in an Y2-eYFP_N1 vector[45]. The Nanoluciferase replaced the similarly sized N-terminal T4L fusion in the crystallization construct. To facilitate correct expression of this large N-terminal domain and export to the plasma membrane, a signal sequence of human interleukin 6 ([…]) was used[44]. HEK293 cells were transiently transfected with 8 μg of the corresponding vectors per T75 flask using MetafectenePro (Biontex) following the manufacturer's instructions. Twenty-four hours post transfection, the cells were harvested in PBS (-Ca^2+; -Mg^2+) and frozen (-80 °C). The membranes were prepared as described previously. Briefly, the cells were lysed in a hypotonic TRIS buffer (50 mM Tris-HCl, pH 7.5 and 50 μM Pefabloc SC) and homogenized using a manual dounce homogenizer for 15 times. Nuclei and cell debris was removed by centrifugation at 820 × g for 10 min (4 °C), and the microsomal membranes in the supernatant were collected by centrifugation at 20,000 × g for 60 min (4 °C). […] The total protein amount was determined by a Bradford assay. The membrane preparations were stored in aliquots at -80 °C. […] Directly before the measurement, 10 μl coelenterazine H in HBSS/HEPES was added to a final concentration of 4 μM. […] The BRET ratio was calculated by the ratio of F/L, and corrected by the background values. The IC50 values were determined using a three-parameter logistic fit in the GraphPad Prism 5 software (GraphPad Software, San Diego, CA, USA)."}, "[3]": {"target": "T3, modified Y2R used for crystallization without N-terminal T4L (Construct_no T4L) (Homo sapiens, UniProt P49146, DEL251-256/H149Y/S280C)", "T3 construct": "eYFP (from the vector name) (C); expressed in transfected cells; host or cells: HEK293 (membrane preparations)", "T3 sequence (P49146 with tags, fused parts or gaps H149Y/DEL251-256/S280C)": "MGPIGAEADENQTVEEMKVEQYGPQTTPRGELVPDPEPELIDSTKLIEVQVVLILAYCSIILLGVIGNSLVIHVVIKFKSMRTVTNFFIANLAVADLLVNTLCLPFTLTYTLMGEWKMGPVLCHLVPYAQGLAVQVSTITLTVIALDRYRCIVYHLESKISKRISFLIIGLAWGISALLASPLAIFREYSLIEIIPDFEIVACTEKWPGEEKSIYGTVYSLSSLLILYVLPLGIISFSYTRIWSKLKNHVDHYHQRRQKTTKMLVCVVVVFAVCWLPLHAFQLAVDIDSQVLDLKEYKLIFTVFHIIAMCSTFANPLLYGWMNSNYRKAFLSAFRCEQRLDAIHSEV", "experiment": "NanoBRET-based binding assay (K18(TAMRA)-NPY)", "conditions": "300 nM K18(TAMRA)-NPY", "experimental": "as §1"}, "wild-type Y2R [4]": {"target": "T2, wild-type Y2R", "experiment": "Dose-dependent inhibition of NPY (0.3 nM)-induced IP accumulation", "assay_type": "cell-based", "conditions": "read-out: pIC50 ± SEM, inhibition of NPY-induced IP accumulation (converted)", "experimental": "To determine the contribution of residues to antagonist binding, IP-One accumulation assays (Cisbio, Codolet, France) were performed. […] The cells were then reseeded into white 384-well microplates (Greiner Bio-One, Kremsmünster, Austria) at a density of 15,000 cells per well and grown for additional 24 h. […] Three microliters of both solutions were added, and the cells were incubated on a tumbler for 60 min."}, "NPY receptors": {"tested_on": "NPY receptors", "conditions": "cited from earlier work"}, "Y2R mutant Q130^3.32H": {"target": "T4, Y2R mutant Q130^3.32H (Homo sapiens, UniProt P49146, Q130H)", "T4 construct": "expressed in transfected cells; host or cells: HEK293", "T4 sequence (P49146 whole entry Q130H)": "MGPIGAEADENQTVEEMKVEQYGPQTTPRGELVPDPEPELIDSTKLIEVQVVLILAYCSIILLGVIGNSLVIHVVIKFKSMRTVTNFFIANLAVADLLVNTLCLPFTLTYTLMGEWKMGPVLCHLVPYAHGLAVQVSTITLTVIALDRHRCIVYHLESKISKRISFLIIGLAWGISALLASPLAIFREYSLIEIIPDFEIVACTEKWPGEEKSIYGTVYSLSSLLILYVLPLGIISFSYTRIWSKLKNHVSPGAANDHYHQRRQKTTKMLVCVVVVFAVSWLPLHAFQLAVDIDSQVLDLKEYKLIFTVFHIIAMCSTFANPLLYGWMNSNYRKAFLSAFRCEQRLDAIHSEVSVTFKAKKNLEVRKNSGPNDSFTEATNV", "experiment": "NPY-induced IP accumulation (IP-One), mutant", "assay_type": "cell-based", "conditions": "1 μM antagonist", "experimental": "The plasmid hY2R_eYFP_pVitro2 encoding the WT Y2R and a fluorophore for investigating the receptor localization was used as template for the generation of receptor point mutations as previously described. Mutagenesis PCR was performed using the Phusion High-Fidelity Polymerase (Thermo Fisher Scientific, Waltham, MA, USA). […] The preparations of the plasmid DNA were performed using the Wizard plus Mini or Midi DNA purification kit (Promega, Madison, WI, USA).\nTo determine the contribution of residues to antagonist binding, IP-One accumulation assays (Cisbio, Codolet, France) were performed. HEK293 cells were seeded into six-well plates and transiently cotransfected with 3200 ng of receptor plasmid DNA and 800 ng of the chimeric G protein (Gα∆6qi4myr) to redirect the Gαi signaling pathway to the Gαq phospholipase C pathway. Transient transfection was carried out using Metafectene as transfection reagent according to the manufacturer’s protocol (Biontex, Munich, Germany) over night. The cells were then reseeded into white 384-well microplates (Greiner Bio-One, Kremsmünster, Austria) at a density of 15,000 cells per well and grown for additional 24 h.\nAll dilutions were performed in HBSS containing 20 mM LiCl (stimulation buffer) and DMSO with a final concentration of 0.01%.\nTo determine the amount of cellular IPs, the FRET acceptor (IP1-d2) and the FRET donor (anti-IP1-Cryptate) were reconstituted and diluted in lysis and detection buffer (1:20) as described in the manufacturer’s protocol. Three microliters of both solutions were added, and the cells were incubated on a tumbler for 60 min."}, "[5]": {"target": "Y2R mutant Y110^2.64A (hY2R_eYFP_pVitro2) (human) (UniProt P49146)"}, "[6]": {"target": "wild-type human Y2R with C-terminal eYFP (hY2R_eYFP_pVitro2) (human) (UniProt P49146)"}, "[7]": {"target": "Y2R mutant D292^6.59N (hY2R_eYFP_pVitro2) (human) (UniProt P49146)"}, "[8]": {"target": "Y2R mutant Q130^3.32H (hY2R_eYFP_pVitro2) (human) (UniProt P49146)"}}, "note": "Read-outs that look alike come from different tables or passages of the source.", "data": [{"compound": "CCN(CC)C(=O)C(c1ccccc1)N1CCN(c2ccc(NC(=O)c3ccccc3-c3cccnc3)cc2F)CC1", "note": "(single isomer, unassigned) [R-isomer]", "values": [{"measurement": "IC50", "setting": "Y2R", "result": "9 ± 2", "unit": "nM"}]}, {"compound": "CCN(CC)C(=O)C(c1ccccc1)N1CCN(c2ccc(NC(=O)c3ccccc3-c3cccnc3)cc2F)CC1", "note": "(single isomer, unassigned) [S-isomer]", "values": [{"measurement": "IC50", "setting": "Y2R", "result": "14 ± 3", "unit": "nM"}]}, {"compound": "CCN(CC)C(=O)C(c1ccccc1)N1CCN(c2ccc(NC(=O)c3ccccc3-c3cccnc3)cc2F)CC1", "note": "(stereo not shown) [JNJ-31020028, N-(4-{4-[2-(diethylamino)-2-oxo-1-phenylethyl]piperazin-1-yl}-3-fluorophenyl)-2-pyridin-3-ylbenzamide]", "values": [{"measurement": "IC50", "setting": "[1]", "result": 60.3, "unit": "nM"}, {"measurement": "IC50", "setting": "wild-type Y2R [2]", "result": 1.29, "unit": "nM"}, {"measurement": "IC50", "setting": "[3]; read-out: IC50, NanoBRET binding", "result": 0.7, "unit": "nM"}, {"measurement": "IC50", "setting": "[3]; read-out: pIC50 ± SEM, NanoBRET binding (converted)", "result": 0.676, "unit": "nM"}, {"measurement": "IC50", "setting": "wild-type Y2R [4]", "result": 47.9, "unit": "nM"}, {"measurement": "Higher binding affinity to Y2R over the other NPY receptors", "setting": "NPY receptors", "result": "over 100 fold"}, {"measurement": "Antagonistic activity compared to WT (in words)", "setting": "Y2R mutant Q130^3.32H", "result": "increased antagonistic activity"}]}, {"compound": "neuropeptide Y (NPY) (from UniProt P01303 29-64)", "values": [{"measurement": "EC50 of NPY-induced IP accumulation (IP-One assay, HEK293 cells with chimeric G protein)", "setting": "[5]", "result": 1.8, "unit": "nM"}, {"measurement": "EC50 of NPY-induced IP accumulation (IP-One assay, HEK293 cells with chimeric G protein)", "setting": "[6]", "result": 0.06, "unit": "nM"}, {"measurement": "fold change of the EC50 of NPY in triggering Y2R signaling (IP accumulation) against the wild-type Y2R", "setting": "[7]", "result": 233, "unit": "fold"}, {"measurement": "fold change of the EC50 of NPY-induced receptor signaling (IP accumulation) against the wild-type Y2R", "setting": "[8]", "result": 132, "unit": "fold"}]}]}
